The text below walks through data of US7658706B2, “Vascular graft sterilization and decellularization” (RTI Biologics, Inc., priority 2005, dated 2010).

Like-named read-outs stand apart in the source and are kept apart here. Some results are limits rather than exact numbers.

Data set [1] deals with class I MHC antigens in human saphenous vein. Briefly: Immunohistochemical stain for class I MHC antigens after decellularization (Example 1). As to the method:
The effectiveness of cell and cellular debris removal was evaluated using two detergent and two enzyme solutions at various concentrations (Table 2). […] One treatment group combined Triton-X 100 with sodium deoxycholate. Trypsin alone at 0.05% (w/v) or 1.0% (w/v) and in combination with 0.02% (w/v) EDTA were the enzyme solutions used in the decellularization process.
Samples were then rinsed in PBS at room temperature for 10 minutes while continuously shaking. Following the rinse step, the samples were cut in half and either prepared for histology or immunohistochemistry.
Immunohistochemistry was used to determine the level of antigens remaining in the tissue after treatment. […] Samples were prepared in frozen blocks and sectioned with a cryostat. The sections were thawed and then rinsed for blocking and antibody staining. Sections were incubated for 30 minutes in primary antibody (mouse anti-HLA-ABC class I MHC) solution and then for anther 30 minutes in diluted biotinylated secondary antibody (Vector ABC Elite kit) solution. An enzyme substrate, NovaRed (Vector), was used to stain the antibodies red. The counter stain was hematoxylin providing a blue contrast.
A Zeiss Axiophot 2 microscope with a motorized Ludl scanning stage was used with tile field mapping at 5× to capture the entire image in one frame. Particle analysis was performed in Image J to determine the ratio of antigen staining (red) to the total tissue sample.
A blue and green filter was applied to only allow red to pass. Obvious areas of antigen staining were removed due to this variation in red hue. […] All samples were compared to their negatives for a percentage of red staining.
This procedure was applied to all images. […] The treatment groups are labeled according to the detergent or enzyme used followed by the processing conditions. For the Trypsin and Trypsin+EDTA groups, the concentrations ranged from 0.05% (L) to 1.0% (H), the processing temperatures were 37° C. (L), 48° C. (M) and 55° C. (H), and the processing times were 6 hrs (L), 17 hrs (M) and 24 hrs (H).

In data set [2] the test system is human greater saphenous vein. The following applies: 0.075% SDS; cited from earlier work.
The test system of a further data set is collagen. Briefly: Collagen denaturation, quantitative enzyme digestion assay (matrix integrity). How it is done:
One of the major structural components of the extracellular matrix that gives veins their strength is collagen. Damage to collagen can result in mechanical failures such as increased compliance or aneurism formation. It can also result in a cellular response due the exposure of the triple helix when stability is compromised. The amount of collagen denaturation was assessed to evaluate processing conditions with a quantitative enzyme digestion assay. […] Digested and undigested fractions are separated and hydrolyzed with concentrated hydrochloric acid (HCl) to release free amino acids from each fraction. Following neutralization of the acid in 1 N NaOH, levels of hydroxyproline (an amino acid present in high concentrations in collagen) are assessed in each fraction by a calorimetric method at a wavelength of 550 nm (Chloramine T binding, and reduction of the substrate DAB to a colored end product). The level of denatured collagen in a given sample is then expressed as a percent of the trypsin soluble fraction to the sum of both trypsin soluble and trypsin insoluble fractions.
Achieving the appropriate log reduction should not come at the expense of the integrity of the extracellular matrix. […] The effect of hydrogen peroxide at 6% at 40° C. and 50° C. on collagen was compared to PAA at 0.1% at the same specified temperatures.
Digested and undigested fractions are separated and hydrolyzed with concentrated hydrochloric acid (HCl) to release free amino acids from each fraction. Following neutralization of the acid in 1 N NaOH, levels of hydroxyproline (an amino acid present in high concentrations only in collagen) are assessed in each fraction by a calorimetric method (Chloramine T binding, and reduction of the substrate DAB to a colored end product). The level of denatured collagen in a given sample is then expressed as a percent of the trypsin soluble fraction to the sum of both trypsin soluble and trypsin insoluble fractions.

Data set [3] has as its system Bacillus stearothermophilus. Briefly: Growth inhibition by residual germicide on TSA and blood agar plates. The data set is classed as cell-based. As to the method: (§1) In order to determine the reduction in spores after processing with cleaning agents, an effective and consistent method was developed. […] It was determined that residual hydrogen peroxide inhibited the growth at concentrations of 0.6% or higher for TSA plates and 6% or higher for blood plates (FIG. 12). It is believed that the catalase contained in the blood agar plates inactivated the hydrogen peroxide. […] Even though the blood agar plates allowed for dilutions as low as 1:10, the titre used was too low to detect more than a 3 log reduction in the process limiting the data collection for the survivor curves.

Data set [4] relates to B. stearothermophilus. The following applies: 26.5% hydrogen peroxide, 25° C.; cited from earlier work.
Data set [5] concerns B. stearothermophilus. The note with it: 6% in DI water, PBS (pH 6) or PBS (pH 7.2), 45° C., sonication. As to the method: In a separate study, 6% hydrogen peroxide was prepared in either DI water, PBS (pH 6) or PBS (pH 7.2). It was then used at 45° C. to treat B. stearothermophilus while under sonication.
Data set [6] deals with enteric bacteria (E. coli, Enterococcus faecalis or Salmonella enteritidis). The following applies: peroxide doses of 0.3 to 15%, 10 min; cited from earlier work.
Data set [7] concerns B. stearothermophilus spores. Briefly: Suspension sterilization: survivor/reduction curves for spores in germicide. The data set is classed as cell-based, Bacillus stearothermophilus. The note with it: 6% peroxide.
Description: The effectiveness of a sterilant is defined in terms of decimal reduction time (D-value). This is the exposure time (t) used under certain conditions to cause one log reduction (n) (90%) of the initial population. A suspension is expected to follow a predictable death rate regarding a plot of the amount of survivors over time. The negative reciprocal of the slope of regression lines of survivor curves gives the D-value where t=D×n n=[…]
as §1
To ensure consistency, each vial was vortexed before each replicate and all of the material was removed from the pipette tip onto the plate. Disposable plate spreaders were used to prevent cross contamination. The moisture needed to be maintained at a certain level because the plates would dry out at 60° C., but if there was too much moisture the bacteria would streak across the plate and prevent an accurate count. The first procedure implemented was propping the plates open in a laminar flow hood to allow excessive moisture to dry. The second method employed was placing the plates in a beaker with a porous covering to trap some moisture while allowing the excess to evaporate.
Hydrogen peroxide at a concentration of 6% was used at temperatures of 40, 45 and 50° C. to calculate a curve for modeling the temperature effects on spore kill. […] Samples were removed and immediately placed in an ice bath at 10, 15, 20 and 30 min. The vial was well-mixed on a vortex, and then diluted 1:10 in series before plating.
Peracetic acid at concentrations of 0.1%, 0.05% and 0.005% were used only at 40° C. to calculate a curve for modeling the concentration effects on spore kill. […] Samples were removed and immediately placed in an ice bath at various time points depending on the concentration. The vial was well-mixed on a vortex, and then diluted 1:10 in series before plating.
(§2) Typically, a survivor curve is constructed with the initial population at time zero and the resultant populations at various time points. Since not all data points could be completed in the same day, some reduction curves were constructed to compare log reduction in the controls for each experiment over time. This normalized the data to its own experimental episode.

The subject of a further data set is B. subtilis. The note with it: hydrogen peroxide alone, 25° C.; cited from earlier work.
The test system of data set [8] is B. stearothermophilus spores. As to the method:
Before enumerating the population remaining on tissue following chemical processing, the amount recoverable from the tissue must be determined. The recovery process developed involves the use of sonication, mechanical shaking and agitation on a vortex. Veins were cut into 30 mm segments and clamped at one end. […] The samples were then cut from the clamps and split open over a centrifuge tube containing 39.9 ml of Letheen broth to expose the lumen to the recovery process. A new pair of scissors or a new scalpel blade were used for each vein and the segments were cut over the broth to catch anything that may not have adhered to the surface of the tissue.
The tubes were sonicated at room temperature for ten minutes to break the bacteria from the surfaces. The tubes were then placed on a shaker where they were for another 10 min. The Letheen broth containing the tissue sample was then vortexed for 30 s and diluted in a series of 1:10 dilutions with each dilution plated on blood agar plates. The plates were incubated overnight at 60° C.
The procedure for spike recovery was used to collect data for the reduction curves. Vein segments were inoculated and then treated in one of the following conditions. Hydrogen peroxide (6%) was analyzed at 40° C. and 50° C. while peracetic acid (0.1%) was only tested at 40° C. At each time point, three samples were spiked and treated with one control for recovery efficiency.
as §2
A control was used at each experimental episode to provide a correction factor for the treated samples. The recovered population divided by the correction factor provides the surviving population after treatment.

The test system of data set [9] is Bacillus atrophaeus spores. The note with it: 7.5% hydrogen peroxide, room temperature, 6 hour incubation; cited from earlier work.
The test system of a further data set is human saphenous vein. Kind of data set: Histology (H&E) for cellularity and matrix (Example 1). The following applies: 0.05% Trypsin, 37° C., 6 or 24 hours (FIGS. 7, 8). How it is done: Samples of human saphenous veins 10 mm in length were placed in each of the test solution at 37° C. or 48° C. for both 6 and 24 hours while continuously shaking. Samples were then rinsed in PBS at room temperature for 10 minutes while continuously shaking. Following the rinse step, the samples were cut in half and either prepared for histology or immunohistochemistry.
Samples were placed in 10% buffered formalin immediately following the rinse step and remained there for at least 24 hours before further preparation. Then, the samples were embedded in paraffin and stained with hematoxylin and eosin (H&E) to determine cellularity.
The results of the immunohistochemical stain were compared to histology slides stained for cellularity (FIGS. 7 to 10). […] The extracellular matrix is preserved in each segment except with 1.0% Cholate at 48° C.

For the molecule `O=C(O)CN(CCN(CC(=O)O)CC(=O)O)CC(=O)O` [EDTA], the “effect of addition of EDTA on removal of cells” value in data set [1] (added to Triton at 0.25%, 6 hours, 37° C.) is recorded as “enhance the removal of cells”. In addition, the “effect of addition of EDTA on removal of antigens” value in [1] (added to Trypsin) is given as “inconsistent effect”.

On to `CCCCCCCCCCCCOS(=O)(=O)[O-].[Na+]` [SDS, sodium dodecyl sulfate], for which the transmural cell removal in data set [2] is listed as above 94%.

For the molecule octylphenol ethoxylate [Triton], in the data set with collagen (Triton 1.0%, Cholate 0.25%, 48° C., 24 hours, constant agitation (FIG. 11)), the “collagen degradation compared to untreated controls” value was “A significant degradative effect was not seen”.

For the molecule `OO` [hydrogen peroxide], the “residual concentration that inhibited the growth” value in [3] (TSA plates) is listed as at least 0.6%; in [3] (blood plates), at least 6%. Besides, the D-value in the data set on B. stearothermophilus [4] is reported as 4.7 min; in data set [7] (40° C., spores in suspension (FIG. 16)), 47.39; in data set [7] (45° C., spores in suspension (FIG. 15)) it was 23.0; in [7] (50° C., spores in suspension (FIG. 14)), 9.87; in the data set on B. subtilis, 55.2 min; in data set [8] (6% hydrogen peroxide, 50° C., spiked tissue (FIG. 20)), 6.63. The molecule also showed a D-value in data set [8] (6% peroxide, 40° C., spiked tissue (FIG. 21)) of 15.17. For the same molecule, in the data set with B. stearothermophilus [5], the “effect of buffer/pH on sterilizing” value is reported as “a buffered solution may be more effective”. Also, the log microbial reductions entry in [6] is listed as “below 0.2 log”. The “time for a 6 log reduction” value is reported as around 5 hours in data set [7] (40° C., suspension); “less than an hour” in data set [7] (50° C., suspension); “less than 40 minutes” in data set [8] (6% hydrogen peroxide, 50° C., spiked tissue). The “reduction of the D-value by an increase in temperature” value in data set [7] (from 40° C. to 50° C., suspension) is recorded as “approximately 80%”. This molecule displayed a D-value with tissue in [8] (6% peroxide with tissue, temperature not stated) of 5.34. In addition, the “decrease of D-value with tissue versus suspension” value in [8] (6% peroxide, temperature not stated) was “approximately 4 minutes”. Also, the growth of spores result in [9] is “No growth was detected”. Moreover, the “ratio of degraded collagen compared to untreated controls” value in the data set with collagen is given as “significantly altered matrix properties”.

As to Trypsin, in data set [1] (1.0% Trypsin or 1.0%/0.02% Trypsin/EDTA, minimum of 48° C. and 17 hrs), the level of antigens entry is recorded as “significantly reduced the level of antigens”. Besides, the cellularity in histology result in the data set on human saphenous vein was “still evidence of cells”. Moreover, the “collagen degradation compared to untreated controls” value in the data set on collagen is “less than half of the degradation of the untreated controls”.
